Assay results from patent US10253002B2, “Compounds and methods of treating infections” (Neoculi Pty Ltd., priority 2013, dated 2019).
In brackets after ≈: the same amount, converted by molar mass. Several values for one entry are separate records, joined by “and”; a condition that tells them apart may be missing. Equal entries are not always repeated. Where two headings read alike, the source gives them in different places.

Experiments:
MRSA = test: Broth microdilution MIC, Example 7 (NCL812 and analogues); format: cell-based, Staphylococcus aureus; conditions: for activity against MRSA among analogues: MIC testing, two MRSA strains; for MIC: Staphylococcus aureus, MRSA; for MIC (μg/ml) at 24 hours, MRSA 1: isolate MRSA 1; for MIC (μg/ml) at 24 hours, MRSA 1 / MIC (μg/ml) at 24 hours, MRSA 2: 1st and 2nd replicate rows; for MIC (μg/ml) at 24 hours, MRSA 2: isolate MRSA 2
Summary of the method: (§1)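 Duplicates per isolate, repeated a third time if >one two-fold dilution apart. MIC50, MIC20 and range calculated per bacterial group.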

VRE = test: as above; format: cell-based, Enterococcus spp.; conditions: for MIC: Enterococcus, VRE; for activity against VRE among analogues: MIC testing, two VRE strains; for MIC (μg/ml) at 24 hours, VRE 1: isolate VRE 1; for MIC (μg/ml) at 24 hours, VRE 1 / MIC (μg/ml) at 24 hours, VRE 2: 1st and 2nd replicate rows; for MIC (μg/ml) at 24 hours, VRE 2: isolate VRE 2
Summary of the method: as §1

[1] = system: Gram-negative bacteria (E. coli and Pseudomonas aeruginosa); test: Testing of NCL812 analogues, Gram-negative antibacterial activity; format: cell-based; conditions: MIC testing
Procedure: Minimum inhibitory concentrations (μg/ml) were determined using the broth microdilution method recommended by the Clinical and Laboratory Standards Institute (CLSI). MIC breakpoints were determined by visual assessment and then confirmed using an ELISA plate reader, measuring absorbance levels at 600 nm. Bacterial growth (turbidity) in the wells with antimicrobial was compared with the amount of growth (turbidity) in the growth-control well (containing no antimicrobial). All isolates were tested in duplicate, if there was a difference of greater than one two-fold dilution in the results, the test was repeated a third time. The purity of the isolates was closely monitored during testing by subculturing the prepared bacterial inoculum onto SBA (sheep blood agar). The MICs of the control strains for the antimicrobial ampicillin were determined for each testing run as an internal quality control. The MIC50, […] and MIC range (minimum and maximum) were calculated for each of the bacterial groups.
MICs were determined against two MRSA strains, two VRE strains and one strain each of E. coli and Pseudomonas aeruginosa.

[2] = Bioassay ranking of the analogues tested; conditions: M + R (MRSA and VRE combined)
Escherichia coli = test: Broth microdilution MIC, Example 7 (NCL812 and analogues); format: cell-based; conditions: for MIC (μg/ml) at 24 hours E. coli ATCC25922: E. coli ATCC25922, 24 hours; for MIC (μg/ml) at 24 hours, E. coli: 1st and 2nd replicate rows
Pseudomonas aeruginosa = test: as above; format: cell-based; conditions: for MIC (μg/ml) at 24 hours Pseudomonas #008: Pseudomonas #008, 24 hours
S. aureus ATCC29213 = test: Broth microdilution MIC, Example 7 (NCL analogues), Table 42; format: cell-based, Staphylococcus aureus; conditions: S. aureus ATCC29213, 24 hours
E. faecalis #32 = test: as above; format: cell-based, Enterococcus faecalis; conditions: E. faecalis #32, 24 hours
[3] = 24 hours, 1st and 2nd replicate rows

| SMILES | activity against MRSA among analogues (MRSA) | activity against VRE among analogues (VRE) | level of Gram-negative antibacterial activity among analogues [1] | MIC (μg/ml) at 24 hours E. coli ATCC25922 (Escherichia coli) [µg/mL] | MIC (μg/ml) at 24 hours Pseudomonas #008 (Pseudomonas aeruginosa) [µg/mL] | MIC (μg/ml) at 24 hours S. aureus ATCC29213 (S. aureus ATCC29213) | MIC (μg/ml) at 24 hours E. faecalis #32 (E. faecalis #32) [µg/mL] | MIC (μg/ml) at 24 hours, MRSA 1 (MRSA; 24 hours) [µg/mL] | MIC (μg/ml) at 24 hours, MRSA 2 (MRSA; 24 hours) [µg/mL] | MIC (μg/ml) at 24 hours, VRE 1 (VRE; 24 hours) [µg/mL] | MIC (μg/ml) at 24 hours, VRE 2 (VRE; 24 hours) | MIC (μg/ml) at 24 hours, E. coli (Escherichia coli; 24 hours) | MIC (μg/ml) at 24 hours, P. aeruginosa (Pseudomonas aeruginosa; [3]) [µg/mL] | further results |
| --- | --- | --- | --- | --- | --- | --- | --- | --- | --- | --- | --- | --- | --- | --- |
| CCCC/C(=N\NC(=N)N)c1ccc(Cl)cc1.Cl [NCL188, (E)-2-(1-(4-chlorophenyl)pentylidene)hydrazine-1-carboximidamide Hydrochloride] | greatest activity | greatest activity | highest level of Gram-negative antibacterial activity |  |  |  |  |  |  |  |  |  |  | MIC (MRSA; bioassay ranking, read-out: MRSA): 16 µg/mL; MIC (VRE; bioassay ranking, read-out: VRE): 16 µg/mL; M + R [2]: 16 µg/mL |
| Cl.[H]/N=C(/N)NN=C(CNN)c1ccc(Cl)cc1 [NCL 190] |  |  |  | >64 | >64 | 32 µg/mL and 64 µg/mL | 64 |  |  |  |  |  |  |  |
| Nc1nc(N/N=C/c2ccc(Cl)cc2)cc(N/N=C/c2ccc(Cl)cc2)n1 [NCL 179] |  |  |  | >64 | >64 | 4 µg/mL (≈ 9.99 µM) | 8 (≈ 20 µM) |  |  |  |  |  |  |  |
| C/C(=N\Nc1cc(N/N=C(\C)c2ccc(Cl)cc2)ncn1)c1ccc(Cl)cc1 [NCL 178] |  |  |  | >64 | >64 | >64 µg/mL | >64 |  |  |  |  |  |  |  |
| Cl.N=C(N)N/N=C/c1ccc(C(F)(F)F)cc1 [NCL041] | greatest activity | greatest activity | highest level of Gram-negative antibacterial activity |  |  |  |  | 64 | 64 | 64 | 64 µg/mL | 128 µg/mL and 64 µg/mL | 128 |  |
| CC(Nc1cc(NC(C)c2ccccc2)ncn1)c1ccccc1 (stereo not drawn) [NCL 183] |  |  |  | >64 | >64 | >64 µg/mL | >64 |  |  |  |  |  |  |  |
| Cl.N=C(N)NN=Cc1ccc(F)cc1 [NCL053] |  |  | highest level of Gram-negative antibacterial activity |  |  |  |  | >128 | >128 | >128 | >128 µg/mL | >128 µg/mL | 128 |  |
| C/C(=N\Nc1cc(N/N=C(\C)c2ccc(Cl)cc2)ncn1)c1ccc(Cl)cc1.Cl [NCL 185] |  |  |  | >64 | >64 | >64 µg/mL | >64 |  |  |  |  |  |  |  |
| C/C(=N\NC(=N)N)c1ccc(Cl)cc1.Cl [NCL 191] |  |  |  | >64 | >64 | >64 µg/mL | >64 |  |  |  |  |  |  |  |
| Cl.N=C(N)N/N=C/c1cccc(C(F)(F)F)c1 [NCL043] | greatest activity | greatest activity | highest level of Gram-negative antibacterial activity |  |  |  |  | 128 | 128 | 128 | 128 µg/mL and 64 µg/mL | 128 µg/mL | 128 |  |
| CC(Nc1cc(NC(C)c2ccccc2)nc(N)n1)c1ccccc1 (stereo not drawn) [NCL 184] |  |  |  | >64 | >64 | >64 µg/mL | 64 (≈ 192 µM) |  |  |  |  |  |  |  |
| Cc1ccc(/C=N/NC(=N)N)cc1.Cl [NCL044] | greatest activity | greatest activity | highest level of Gram-negative antibacterial activity |  |  |  |  | 128 | 128 | 128 | 128 µg/mL | >128 µg/mL | 128 |  |
| Cl.N=C(N/N=C/c1cc(O)c(O)c(O)c1)N/N=C/c1cc(O)c(O)c(O)c1 [NCL097, 2,2′-bis[(3,4,5-trihydroxyphenyl)methylene]carbonimidic Dihydrazide Hydrochloride] | greatest activity | greatest activity | highest level of Gram-negative antibacterial activity |  |  |  |  |  |  |  |  |  |  | MIC (MRSA; 24 h, read-out: MIC (μg/ml) at 24 hours, MRSA 1, MRSA 1, 24 hours, duplicate lines per compound): 128 µg/mL; MIC (MRSA; 24 h, read-out: MIC (μg/ml) at 24 hours, MRSA 2, MRSA 2, 24 hours, duplicate lines per compound): 32 µg/mL; MIC (VRE; 24 h, read-out: MIC (μg/ml) at 24 hours, VRE 1, VRE 1, 24 hours, duplicate lines per compound): 32 µg/mL; MIC (VRE; 24 h, read-out: MIC (μg/ml) at 24 hours, VRE 2, VRE 2, 24 hours, duplicate lines per compound): 32 µg/mL; MIC (Escherichia coli; Escherichia coli, read-out: MIC (μg/ml) at 24 hours, E. coli, 24 hours, duplicate lines per compound): > 128 µg/mL; MIC (μg/ml) at 24 hours, P. aeruginosa (Pseudomonas aeruginosa; P. aeruginosa, 24 hours, duplicate lines per compound, Hydrochloride): >128 µg/mL; MIC (Pseudomonas aeruginosa; Pseudomonas aeruginosa, 24 h, read-out: MIC (μg/ml) at 24 hours, P. aeruginosa, 24 hours, duplicate lines per compound): 128 µg/mL |
| Cl.Clc1ccc(/C=N/Nc2cc(N/N=C/c3ccc(Cl)cc3)ncn2)cc1 [NCL 187] |  |  |  | >64 | >64 | >64 µg/mL | >64 |  |  |  |  |  |  |  |
| OC/C(=N\Nc1cc(N/N=C(\CO)c2ccc(Cl)cc2)ncn1)c1ccc(Cl)cc1 [NCL 180] |  |  |  | >64 | >64 | >64 µg/mL | 64 (≈ 144 µM) |  |  |  |  |  |  |  |
| Cl.[H]/N=C(\N)NN=C(CCCC)c1ccc(Cl)cc1 [NCL 188] |  |  |  | 64 | >64 | 32 µg/mL | 32 |  |  |  |  |  |  |  |
| Cl.N=C(N)N/N=C/c1cccc(Cl)c1 [NCL052] | greatest activity | greatest activity | highest level of Gram-negative antibacterial activity |  |  |  |  | 128 | 128 | 128 | 128 µg/mL | >128 µg/mL | 128 |  |
| Cl.N=C(N)N/N=C/c1ccc(Cl)cc1 [NCL030] | greatest activity | greatest activity | highest level of Gram-negative antibacterial activity |  |  |  |  | 128 | 128 | 64 | 64 µg/mL | >128 µg/mL | 128 |  |
